Where a name gives a salt, the structure may show the parent alone.
Key:
[1] = biological target: T1, 5-HT2 receptor (A7r5 rat vascular smooth muscle cells) (Rattus norvegicus, UniProt P14842); experiment: 5-HT2 functional assay: [Ca2+]i mobilization (FLIPR); format: cell-based; details: for EC50: [Ca2+]i mobilization; for Emax: percentage of maximum 5-HT-induced response, read-out: Efficacy (Emax, %)
T1 construct: endogenous in cells; host or cells: A7r5 rat vascular smooth muscle cells
Experimental: Method 2: 5-HT2 Functional Assay: [Ca^2+]i Mobilization
The receptor-mediated mobilization on intracellular calcium ([Ca^2+]i) was studied using the Fluorescence Imaging Plate Reader (FLIPR) instrument. Rat vascular smooth muscle cells, A7r5, were grown in a normal media of DMEM/10% FBS and 10 μg/mL gentamycin. Confluent cell monolayers were trypsinized, pelleted, and re-suspended in normal media. Cells were seeded in a […] volume at a density of 20,000 cells/well in a black wall, 96-well tissue culture plate and grown for 2 days.
On the day of the experiment, one vial of FLIPR Calcium Assay Kit dye was re-suspended in 50 mL of a FLIPR buffer consisting of Hank's Balanced Salt Solution (HBSS), 20 mM HEPES, and 2.5 mM probenecid, pH 7.4. Cells were loaded with the calcium-sensitive dye by addition of an equal volume (50 μL) to each well of the 96-well plate and incubated with dye for 1 h at 23° C.
Typically, test compounds were stored at 25 μM in 50% DMSO/50% Ethanol solvent. Compounds were diluted 1:50 in 20% DMSO/20% Ethanol. For “hit” screening, compounds were further diluted 1:10 in FLIPR buffer and tested at a final concentration of 10 μM. For dose-response experiments, compounds were diluted 1:50 in FLIPR buffer and serially diluted 1:10 to give a 5- or 8-point dose-response curve.
The compound plate and cell plate were placed in the FLIPR instrument. At the beginning of an experimental run, a signal test was performed to check the basal fluorescence signal from the dye-loaded cells and the uniformity of the signal across the plate. The basal fluorescence was adjusted between 8000-12000 counts by modifying the exposure time, the camera F-stop, or the laser power. Instrument settings for a typical assay were the following: laser power 0.3-0.6 W, camera F-stop F/2, and exposure time 0.4 sec. An aliquot (25 μL) of the test compound was added to the existing 100 μL dye-loaded cells at a dispensing speed of 50 μL/sec. Fluorescence data were collected in real-time at 1.0 sec intervals for the first 60 secs and at 6.0 sec intervals for an additional 120 secs. Responses were measured as peak fluorescence intensity minus basal and where appropriate were expressed as a percentage of a maximum 5-HT-induced response. When the compounds were tested as antagonists against 10 μM 5-HT, they were incubated with the cells for 15 minutes prior to the addition of 5-HT.

[2] = test system: lasered (hypertensive) eyes of conscious cynomolgus monkeys; experiment: Acute IOP response in lasered (hypertensive) eyes of conscious cynomolgus monkeys; format: in vivo; details: lasered monkey eye
Experimental: Method 3: Acute IOP Response in Lasered (Hypertensive) Eyes of Conscious Cynomolgus Monkeys
Intraocular pressure (IOP) can be determined with an Alcon Pneumatonometer after light corneal anesthesia with 0.1% proparacaine. Eyes are washed with saline after each measurement. After a baseline IOP measurement, test compound is instilled in one 30 μL aliquot to the right eyes only of nine cynomolgus monkeys. Vehicle is instilled in the right eyes of six additional animals. Subsequent IOP measurements are taken at 1, 3, and 6 hours.
The above method was used to determine the IOP lowering efficacy of the compound of Example 1 (dosed at a concentration of 300 μg).

[3] = 1 hr after topical dose of 300 μg
[4] = 3 hrs after topical dose of 300 μg
[5] = 6 hrs after topical dose of 300 μg

T1 sequence (P14842 whole entry): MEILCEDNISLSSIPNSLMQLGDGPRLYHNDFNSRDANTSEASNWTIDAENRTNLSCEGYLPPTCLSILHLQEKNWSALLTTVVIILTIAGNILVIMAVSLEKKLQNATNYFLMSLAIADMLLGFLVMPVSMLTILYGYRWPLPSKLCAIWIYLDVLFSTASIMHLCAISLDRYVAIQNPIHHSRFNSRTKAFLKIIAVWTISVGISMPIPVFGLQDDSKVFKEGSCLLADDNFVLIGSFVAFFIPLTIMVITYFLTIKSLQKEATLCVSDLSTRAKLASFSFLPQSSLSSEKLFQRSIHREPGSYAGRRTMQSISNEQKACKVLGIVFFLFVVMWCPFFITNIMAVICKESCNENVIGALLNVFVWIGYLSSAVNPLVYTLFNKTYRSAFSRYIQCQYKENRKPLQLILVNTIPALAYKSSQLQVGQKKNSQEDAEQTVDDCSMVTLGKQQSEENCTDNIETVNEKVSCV

| SMILES | EC50 [1] | Emax [1] | melting point | also measured |
| --- | --- | --- | --- | --- |
| COC(=O)NC[C@H]1COc2ccc3cnn(C[C@H](C)N)c3c2O1.Cl [Example 7, [(S)-1-((S)-2-Amino-propyl)-7,8-dihydro-1H-[1,4]dioxino[2,3-g]indazol-8-ylmethyl]-carbamic acid methyl ester hydrochloride] | 92 nM | 66% | 265 to 266 °C |  |
| C[C@H](N)Cn1ncc2ccc3c(c21)O[C@H](CO)CO3.Cl [Example 2, [(R)-1-((S)-2-Aminopropyl)-7,8-dihydro-1H-[1,4]dioxino[2,3-g]indazol-8-yl]-methanol hydrochloride] | 53 nM | 77% | 112 to 116 °C |  |
| C[C@H](N)Cn1ncc2ccc3c(c21)O[C@@H](CO)CO3 (as salt: hydrochloride) [Example 1, [(S)-1-((S)-2-Amino-propyl)-7,8-dihydro-1H-[1,4]dioxino[2,3-g]indazol-8-yl]-methanol hydrochloride] |  |  | 202 to 203 °C |  |
| C[C@H](N)Cn1ncc2ccc3c(c21)O[C@@H](CN)CO3 [Example 8, (S)-2-((S)-8-Aminomethyl-7,8-dihydro-[1,4]dioxino[2,3-g]indazol-1-yl)-1-methyl-ethylamine hydrochloride] | 232 nM | 54% |  |  |
| CC(C)C(=O)NC[C@H]1COc2ccc3cnn(C[C@H](C)N)c3c2O1 [Example 6, N-[(S)-1-((S)-2-Amino-propyl)-7,8-dihydro-1H-[1,4]dioxino[2,3-g]indazol-8-ylmethyl]-isobutyramide hydrochloride] | 125 nM | 59% |  |  |
| COC(=O)NC[C@@H]1COc2ccc3cnn(C[C@H](C)N)c3c2O1 [Example 9, [(R)-1-((S)-2-Amino-propyl)-7,8-dihydro-1H-[1,4]dioxino[2,3-g]indazol-8-ylmethyl]-carbamic acid methyl ester hydrochloride] | 106 nM | 44% |  |  |
| CCS(=O)(=O)NC[C@H]1COc2ccc3cnn(C[C@H](C)N)c3c2O1.Cl [Example 5, Ethanesulfonic acid [(S)-1-((S)-2-amino-propyl)-7,8-dihydro-1H-[1,4]dioxino[2,3-g]indazol-8-ylmethyl]-amide hydrochloride] | 67 nM | 82% | 243 to 244 °C |  |
| C[C@H](N)Cn1ncc2ccc3c(c21)O[C@@H](CNS(C)(=O)=O)CO3.Cl [Example 4, N-[(S)-1-((S)-2-Amino-propyl)-7,8-dihydro-1H-[1,4]dioxino[2,3-g]indazol-8-ylmethyl]-methanesulfonamide hydrochloride] | 78 nM | 81% | 235 to 236 °C |  |
| C[C@H](N)Cn1ncc2ccc3c(c21)OCCO3 [Example 3, (S)-2-(7,8-Dihydro-[1,4]dioxino[2,3-g]indazol-1-yl)-1-methyl-ethylamine hydrochloride] | 27 nM | 92% |  |  |
| C[C@H](N)Cn1ncc2ccc3c(c21)O[C@@H](CO)CO3 [Example 1, [(S)-1-((S)-2-Amino-propyl)-7,8-dihydro-1H-[1,4]dioxino[2,3-g]indazol-8-yl]-methanol hydrochloride] | 31 nM | 39% |  | IOP % change [2, 3]: −4.3%; IOP Change mmHg [2, 3]: −2.2 mmHg; IOP % change [2, 4]: −15.8%; IOP Change mmHg [2, 4]: −6.8 mmHg; IOP % change [2, 5]: −23.6%; IOP Change mmHg [2, 5]: −9.6 mmHg |

Reference: US7425572B2, “Use of dioxindoindazoles and dioxoloindazoles for treating glaucoma” (Alcon, Inc., priority 2004, dated 2008)
